Assay results as given in patent publication US20190099421A1, “CINNOLIN-4-AMINE COMPOUNDS AND THEIR USE IN TREATING CANCER” (AstraZeneca AB, priority 2016, published 2019).

Molecular target: T1, ATM (Homo sapiens, UniProt Q13315)
T1 construct: endogenous in cells; host or cells: HT29 cells (ECACC #85061109)
Assay: Assay a): ATM cellular potency (pATM Ser1981 in irradiated HT29 cells)
Format: cell-based
Details: 1 h compound incubation, X-ray irradiation ~600 cGy, pATM (Ser1981) staining 1 h later; read-out: Assay a) ATM Cell IC50
Description: IC50 values were calculated using a smart fitting model in Genedata.
Most ATM molecules in the cell are rapidly phosphorylated on this site after doses of radiation as low as 0.5 Gy, and binding of a phosphospecific antibody is detectable after the introduction of only a few DNA double-strand breaks in the cell.
The rationale of the pATM assay is to identify inhibitors of ATM in cells. HT29 cells are incubated with test compounds for 1 hr prior to X-ray-irradiation. 1 h later the cells are fixed and stained for pATM (Ser1981). The fluorescence is read on the arrayscan imaging platform.
The following morning compounds of Formula (I) in 100% DMSO were added to assay plates by acoustic dispensing. After 1 h incubation at 37° C. and 5% CO2, plates (up to 6 at a time) were irradiated using the X-RAD 320 instrument (PXi) with equivalent to ˜600 cGy. Plates were returned to the incubator for a further 1 h. […] Then 20 μl of 0.1% Triton X100 in PBS was added and incubated for 20 minutes at r.t., to permeabalise cells. Then the plates were washed once with 50 μl/well PBS, using a Biotek EL405 plate washer.
After 1 h incubation at r.t., the plates were washed three times with 50 μl/well PBS, using a Biotek EL405 plate washer, and plates were sealed and kept in PBS at 4° C. until read. Plates were read using an ArrayScan VTI instrument, using an XF53 filter with 10× objective.

T1 sequence (Q13315 whole entry): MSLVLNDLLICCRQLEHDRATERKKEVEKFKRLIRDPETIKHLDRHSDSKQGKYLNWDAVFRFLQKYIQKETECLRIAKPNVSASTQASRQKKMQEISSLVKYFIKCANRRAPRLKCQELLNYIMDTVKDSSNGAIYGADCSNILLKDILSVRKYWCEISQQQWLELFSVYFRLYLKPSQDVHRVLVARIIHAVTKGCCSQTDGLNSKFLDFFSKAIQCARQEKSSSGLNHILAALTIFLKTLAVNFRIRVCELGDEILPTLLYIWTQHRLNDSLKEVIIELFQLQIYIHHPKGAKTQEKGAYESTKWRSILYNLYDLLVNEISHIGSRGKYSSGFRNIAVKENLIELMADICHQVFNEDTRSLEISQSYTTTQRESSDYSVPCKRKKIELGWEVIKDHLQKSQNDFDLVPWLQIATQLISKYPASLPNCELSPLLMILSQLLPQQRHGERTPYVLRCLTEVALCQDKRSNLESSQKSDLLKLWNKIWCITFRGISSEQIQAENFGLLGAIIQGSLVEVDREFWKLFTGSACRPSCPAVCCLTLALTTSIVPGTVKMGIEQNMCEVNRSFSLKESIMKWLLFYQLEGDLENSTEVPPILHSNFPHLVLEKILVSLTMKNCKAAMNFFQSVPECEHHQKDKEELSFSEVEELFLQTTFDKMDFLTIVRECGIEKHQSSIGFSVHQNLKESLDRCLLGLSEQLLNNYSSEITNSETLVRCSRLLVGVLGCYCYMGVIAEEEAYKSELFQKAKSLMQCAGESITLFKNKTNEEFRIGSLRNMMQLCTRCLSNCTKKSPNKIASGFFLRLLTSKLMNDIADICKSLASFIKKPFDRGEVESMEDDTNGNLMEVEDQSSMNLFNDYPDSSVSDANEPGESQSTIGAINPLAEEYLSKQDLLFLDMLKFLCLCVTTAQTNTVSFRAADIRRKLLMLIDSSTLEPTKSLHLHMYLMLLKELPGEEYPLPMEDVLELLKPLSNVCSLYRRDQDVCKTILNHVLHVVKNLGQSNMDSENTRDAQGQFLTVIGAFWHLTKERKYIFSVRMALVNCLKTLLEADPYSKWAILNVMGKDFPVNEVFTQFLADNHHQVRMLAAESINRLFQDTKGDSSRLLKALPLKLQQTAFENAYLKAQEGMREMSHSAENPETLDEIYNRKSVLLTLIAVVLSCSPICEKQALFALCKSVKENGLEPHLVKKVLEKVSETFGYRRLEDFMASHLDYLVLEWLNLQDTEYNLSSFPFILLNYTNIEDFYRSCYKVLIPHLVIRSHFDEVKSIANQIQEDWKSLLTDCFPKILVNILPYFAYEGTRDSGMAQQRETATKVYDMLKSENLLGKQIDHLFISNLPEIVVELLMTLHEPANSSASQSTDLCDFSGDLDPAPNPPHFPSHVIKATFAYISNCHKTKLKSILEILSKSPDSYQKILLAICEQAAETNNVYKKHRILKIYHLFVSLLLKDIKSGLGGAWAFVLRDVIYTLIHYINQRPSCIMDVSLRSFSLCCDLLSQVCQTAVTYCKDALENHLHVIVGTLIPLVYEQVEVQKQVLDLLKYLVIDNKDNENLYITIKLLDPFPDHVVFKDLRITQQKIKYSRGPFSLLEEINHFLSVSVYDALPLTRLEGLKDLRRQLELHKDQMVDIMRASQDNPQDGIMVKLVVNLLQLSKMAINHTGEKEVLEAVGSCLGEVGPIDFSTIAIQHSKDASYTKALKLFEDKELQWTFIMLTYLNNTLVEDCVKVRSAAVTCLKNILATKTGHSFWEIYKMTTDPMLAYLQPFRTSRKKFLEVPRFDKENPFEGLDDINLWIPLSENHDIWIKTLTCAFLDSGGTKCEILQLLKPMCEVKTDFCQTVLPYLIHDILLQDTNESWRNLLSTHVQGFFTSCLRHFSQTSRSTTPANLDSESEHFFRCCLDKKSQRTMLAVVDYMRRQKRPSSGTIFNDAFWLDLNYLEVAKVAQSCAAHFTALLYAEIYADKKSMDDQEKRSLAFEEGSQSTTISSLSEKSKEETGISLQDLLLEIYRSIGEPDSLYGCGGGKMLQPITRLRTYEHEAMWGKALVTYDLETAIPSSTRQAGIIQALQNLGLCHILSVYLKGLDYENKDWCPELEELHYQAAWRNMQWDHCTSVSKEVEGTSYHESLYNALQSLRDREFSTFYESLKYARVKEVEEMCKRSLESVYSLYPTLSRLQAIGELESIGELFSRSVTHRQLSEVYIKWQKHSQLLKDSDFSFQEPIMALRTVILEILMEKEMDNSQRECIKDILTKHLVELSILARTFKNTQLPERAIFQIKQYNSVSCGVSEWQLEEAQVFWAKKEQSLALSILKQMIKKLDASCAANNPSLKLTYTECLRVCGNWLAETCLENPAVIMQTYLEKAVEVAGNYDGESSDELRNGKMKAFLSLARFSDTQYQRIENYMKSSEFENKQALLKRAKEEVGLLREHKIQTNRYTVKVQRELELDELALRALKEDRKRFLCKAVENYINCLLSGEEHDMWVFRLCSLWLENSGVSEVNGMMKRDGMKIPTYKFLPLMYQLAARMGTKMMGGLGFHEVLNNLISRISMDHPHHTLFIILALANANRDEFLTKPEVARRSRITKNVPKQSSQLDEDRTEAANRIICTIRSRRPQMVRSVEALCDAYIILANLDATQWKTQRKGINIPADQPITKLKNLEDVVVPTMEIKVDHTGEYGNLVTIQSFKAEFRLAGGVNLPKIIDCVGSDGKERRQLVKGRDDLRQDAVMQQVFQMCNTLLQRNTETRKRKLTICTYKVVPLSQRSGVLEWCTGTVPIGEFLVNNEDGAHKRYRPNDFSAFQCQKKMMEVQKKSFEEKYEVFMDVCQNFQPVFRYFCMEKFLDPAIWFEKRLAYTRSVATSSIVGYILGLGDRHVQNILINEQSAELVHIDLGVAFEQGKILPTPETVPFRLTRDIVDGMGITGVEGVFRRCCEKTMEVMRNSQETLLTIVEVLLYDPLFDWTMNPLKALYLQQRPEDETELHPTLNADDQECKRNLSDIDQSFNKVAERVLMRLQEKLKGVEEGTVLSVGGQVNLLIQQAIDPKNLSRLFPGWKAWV

SMILES | IC50 [nM]
CNCCCOc1ccc(-c2ccc3nnc(C(N)=O)c(N[C@@H](C)C4CCOCC4)c3c2)cn1 [Example 4, 6-[6-(3-Methylaminopropoxy)pyridin-3-yl]-4-[[(1S)-1-(oxan-4-yl)ethyl]amino]cinnoline-3-carboxamide] | 7.72
CNCCCOc1ccc(-c2ccc3nnc(C(=O)NC)c(N[C@@H](C)C4CCOCC4)c3c2)cn1 [Example 5, N-Methyl-6-[6-(3-methylaminopropoxy)pyridin-3-yl]-4-[[(1S)-1-(oxan-4-yl)ethyl]amino]cinnoline-3-carboxamide] | 4.91
